Laboratory results from patent US12115213B2, “Methods of treating fungal infections” (priority 2016, dated 2024).
Peptide text beside a SMILES is read from it. * marks the point of attachment. Cbz = O=C(OCc1ccccc1)*

System: wild-type H99 strain
Assay: Proteasome inhibitor / SDS sensitivity growth assay
Format: cell-based, Cryptococcus neoformans
Details: for growth of wild type and complemented strain with SDS and proteasome inhibitor: YPD with 0.025% SDS plus inhibitor
Experimental: For SDS sensitivity testing, SDS was added to YPD to a final concentration of 0.2% (wt/vol), and 2× serial dilutions were prepared in 96-well plates. Cells of H99, the fbp1Δ mutant, and its complemented strain were added to the wells to a final optical density at 600 nm (OD600) of 0.01. The plates were kept at 30° C., and the OD600 was measured every 24 h. […] Twofold serial dilutions were prepared in 96-well plates. The wild-type H99 strain was added to the well containing proteasome inhibitors (MG132 or […]) and SDS to a final OD600 of 0.01. The fbp1Δ mutant was added to YPD with 0.025% SDS only to a final OD600 of 0.01. The growth of cultures was determined by measuring the OD600 every 24 h.
To test whether SDS sensitivity is regulated by the SCF(Fbp1) E3 ligase function, the effects of proteasome inhibitors on Cryptococcus SDS sensitivity was investigated. Fungal growth rates of the wild-type H99 strain, the fp1Δ mutant, and its complemented strain on YPD medium containing 0.025% SDS were determined in the absence or presence of the proteasome inhibitor MG132 or PS-341. MG132 is a cell-permeative proteasome inhibitor which can reduce the degradation of ubiquitin-conjugated proteins by the 26S complex without affecting its ATPase or isopeptidase activity. PS-341 is a potent and reversible proteasome inhibitor that functions to […]. […] Therefore, without wishing to be bound by theory, certain substrates of Fbp1 may also participate in regulation of cell membrane integrity.

SMILES | effect on growth of the wild-type strain or the mutant, inhibitor alone (25 μM MG132, YPD without SDS) | growth of wild type and complemented strain with SDS and proteasome inhibitor | effect on growth of the wild-type strain or the mutant, inhibitor alone (100 μM PS-341, YPD without SDS)
CC(C)C[C@@H](C=O)NC(=O)[C@H](CC(C)C)NC(=O)[C@H](CC(C)C)NC(=O)OCc1ccccc1 [MG132] (Cbz-Leu-Leu-Leu-aldehyde) | Neither 25 μM MG132 nor 100 μM PS-341 alone affected the growth | significant growth defect | 
CC(C)C[C@H](NC(=O)[C@H](Cc1ccccc1)NC(=O)c1cnccn1)B(O)O [PS-341] |  | significant growth defect | Neither 25 μM MG132 nor 100 μM PS-341 alone affected the growth
